Patent publication US20230143612A1 (Arbutus Biopharma Corporation, priority 2020, published 2023)

Target: PD-L1 His protein / PD-1 Fc protein (Homo sapiens, UniProt Q9NZQ7)
Assay: HTRF Assay (PD-1/PD-L1 interaction)
Assay type: binding
Conditions: PD-L1 His 6 nM, PD-1 Fc 6 nM
Method in brief: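 HTRF: PD-L1 His (6 nM final), compound (3-fold dilutions, 20 μM to 0.001 μM final) and PD-1 Fc (6 nM final) preincubated 15 min at room temperature. Anti-human IgG-XL665 and anti-6HIS Tb cryptate (mixed at 6.7 nM and 0.35 nM) then added for 1 h at room temperature before reading.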

Chain of PD-L1 His protein / PD-1 Fc protein (Q9NZQ7 19-238 limits assumed): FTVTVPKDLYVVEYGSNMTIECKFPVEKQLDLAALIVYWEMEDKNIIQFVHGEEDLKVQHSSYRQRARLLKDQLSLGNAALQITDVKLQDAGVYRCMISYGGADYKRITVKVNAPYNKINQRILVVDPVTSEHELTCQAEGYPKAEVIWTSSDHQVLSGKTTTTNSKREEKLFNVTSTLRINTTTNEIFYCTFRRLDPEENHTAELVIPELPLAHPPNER

Row | Compound | IC50 [nM]
1 | Cc1c(-c2ccn3c(=O)c(CNCCO)cnc3c2)cccc1-c1cccc(-c2ccn3c(=O)c(CNCCO)cnc3c2)c1C [Example 15, 8,8′-(2,2′-Dimethyl-[1,1′-biphenyl]-3,3′-diyl)bis(3-(((2-hydroxyethyl)amino)methyl)-4H-pyrido[1,2-a]pyrimidin-4-one)] | 60
2 | Cc1c(-c2ccn3c(=O)c(CNCCO)cnc3c2)cccc1-c1cccc(COc2cc(OCc3cncc(C#N)c3)c(CNCCO)cc2Cl)c1C#N [Example 16, 5-((4-Chloro-5-((2-cyano-3′-(3-(((2-hydroxyethyl)amino)methyl)-4-oxo-4H-pyrido[1,2-a]pyrimidin-8-yl)-2′-methyl-[1,1′-biphenyl]-3-yl)methoxy)-2-(((2-hydroxyethyl)amino)methyl)phenoxy)methyl)nicotinonitrile] | 0.7
3 | Cc1c(COc2cc(OCc3cncc(C#N)c3)c(CNCCO)cc2Cl)cccc1-c1cccc(-c2cnc3cc(CNCCO)ccn3c2=O)c1C [Example 17, 5-((4-Chloro-2-(((2-hydroxyethyl)amino)methyl)-5-((3′-(8-(((2-hydroxyethyl)amino)methyl)-4-oxo-4H-pyrido[1,2-a]pyrimidin-3-yl)-2,2′-dimethyl-[1,1′-biphenyl]-3-yl)methoxy)phenoxy)methyl)nicotinonitrile] | 2
4 | Cc1c(COc2cc(OCc3cncc(C#N)c3)c(CNC[C@@H]3CCC(=O)N3)cc2Cl)cccc1-c1cccc(-c2ccc3c(c2)C(=O)N(C)CC(=O)N3CCNC[C@@H]2CCC(=O)N2)c1C [Example 20, 5-((4-Chloro-5-((2,2′-dimethyl-3′-(4-methyl-2,5-dioxo-1-(2-((((S)-5-oxopyrrolidin-2-yl)methyl)amino)ethyl)-2,3,4,5-tetrahydro-1H-benzo[e][1,4]diazepin-7-yl)-[1,1′-biphenyl]-3-yl)methoxy)-2-(((((S)-5-oxopyrrolidin-2-yl)methyl)amino)methyl)phenoxy)methyl)nicotinonitrile] | 4.2
5 | Cc1c(/C=C(\F)c2ccc(CNCCO)cn2)cccc1-c1cccc(-c2ccn3c(=O)c(CNCCO)cnc3c2)c1C [Example 21, (Z)-8-(3′-(2-Fluoro-2-(5-(((2-hydroxyethyl)amino)methyl)pyridin-2-yl)vinyl)-2,2′-dimethyl-[1,1′-biphenyl]-3-yl)-3-(((2-hydroxyethyl)amino)methyl)-4H-pyrido[1,2-a]pyrimidin-4-one] | 4.8
6 | Cc1c(COc2cc(OCc3cncc(C#N)c3)c(CNCCO)cc2Cl)cccc1-c1cccc(-c2ccc3c(c2)N(C)C(=O)CCC3NCCO)c1C (centres unmarked) [Example 22, 5-((4-Chloro-5-((3′-(5-((2-hydroxyethyl)amino)-1-methyl-2-oxo-2,3,4,5-tetrahydro-1H-benzo[b]azepin-8-yl)-2,2′-dimethyl-[1,1′-biphenyl]-3-yl)methoxy)-2-(((2-hydroxyethyl)amino)methyl)phenoxy)methyl)nicotinonitrile] | 6
7 | Cc1c(COc2cc(OCc3cncc(C#N)c3)c(CNCCO)cc2Cl)cccc1-c1cccc(-n2ccc(CNCCO)cc2=O)c1C [Example 23, 5-((4-Chloro-2-(((2-hydroxyethyl)amino)methyl)-5-((3′-(4-(((2-hydroxyethyl)amino)methyl)-2-oxopyridin-1(2H)-yl)-2,2′-dimethyl-[1,1′-biphenyl]-3-yl)methoxy)phenoxy)methyl)nicotinonitrile] | 33
8 | Cc1c(COc2cc(OCc3cncc(C#N)c3)c(CNC[C@@H]3CCC(=O)N3)cc2Cl)cccc1-c1cccc(-c2ccn3c(=O)c(CNC[C@@H]4CCC(=O)N4)ccc3c2)c1C [Example 24, 5-((4-Chloro-5-((2,2′-dimethyl-3′-(4-oxo-3-(((((S)-5-oxopyrrolidin-2-yl)methyl)amino)methyl)-4H-quinolizin-8-yl)-[1,1′-biphenyl]-3-yl)methoxy)-2-(((((S)-5-oxopyrrolidin-2-yl)methyl)amino)methyl)phenoxy)methyl)nicotinonitrile] | 0.5
9 | Cc1c(COc2cc(OCc3cncc(C#N)c3)c(CNCCO)cc2Cl)cccc1-c1cccc(-c2ccn3c(=O)c(CNCCO)cnc3c2)c1C#N [Example 25, 5-((4-Chloro-5-((2′-cyano-3′-(3-(((2-hydroxyethyl)amino)methyl)-4-oxo-4H-pyrido[1,2-a]pyrimidin-8-yl)-2-methyl-[1,1′-biphenyl]-3-yl)methoxy)-2-(((2-hydroxyethyl)amino)methyl)phenoxy)methyl)nicotinonitrile] | 0.3
10 | Cc1c(COc2cc(OCc3cncc(C#N)c3)c(CN3CC(CO)C3)cc2Cl)cccc1-c1cccc(-c2ccc3c(c2)C(=O)N(C)CC(=O)N3CCN2CC(CO)C2)c1C [Example 26, 5-((4-Chloro-5-((3′-(1-(2-(3-(hydroxymethyl)azetidin-1-yl)ethyl)-4-methyl-2,5-dioxo-2,3,4,5-tetrahydro-1H-benzo[e][1,4]diazepin-7-yl)-2,2′-dimethyl-[1,1′-biphenyl]-3-yl)methoxy)-2-((3-(hydroxymethyl)azetidin-1-yl)methyl)phenoxy)methyl)nicotinonitrile] | 0.7
11 | Cc1c(OCc2cc(OCc3cncc(C#N)c3)c(CNC[C@@H]3CCC(=O)N3)cc2Cl)cccc1-c1cccc(-c2ccc3c(c2)C(=O)N(C)CC(=O)N3CCNC[C@@H]2CCC(=O)N2)c1C [Example 27, 5-((4-Chloro-5-(((2,2′-dimethyl-3′-(4-methyl-2,5-dioxo-1-(2-((((S)-5-oxopyrrolidin-2-yl)methyl)amino)ethyl)-2,3,4,5-tetrahydro-1H-benzo[e][1,4]diazepin-7-yl)-[1,1′-biphenyl]-3-yl)oxy)methyl)-2-(((((S)-5-oxopyrrolidin-2-yl)methyl)amino)methyl)phenoxy)methyl)nicotinonitrile] | 9.9
12 | Cc1c(COc2cc(OCc3cncc(C#N)c3)c(CNC[C@H]3CCC(=O)N3)cc2Cl)cccc1-c1cccc(-c2ccn3c(=O)c(CNC[C@H]4CCC(=O)N4)ccc3c2)c1C [Example 28, 5-((4-Chloro-5-((2,2′-dimethyl-3′-(4-oxo-3-(((((R)-5-oxopyrrolidin-2-yl)methyl)amino)methyl)-4H-quinolizin-8-yl)-[1,1′-biphenyl]-3-yl)methoxy)-2-(((((R)-5-oxopyrrolidin-2-yl)methyl)amino)methyl)phenoxy)methyl)nicotinonitrile] | 0.7
13 | Cc1c(COc2cc(OCc3cncc(C#N)c3)c(CN3CC(C(=O)O)C3)cc2Cl)cccc1-c1cccc(-c2ccn3c(=O)c(CN4CC(C(=O)O)C4)ccc3c2)c1C [Example 29, 1-((8-(3′-((4-((3-Carboxyazetidin-1-yl)methyl)-2-chloro-5-((5-cyanopyridin-3-yl)methoxy)phenoxy)methyl)-2,2′-dimethyl-[1,1′-biphenyl]-3-yl)-4-oxo-4H-quinolizin-3-yl)methyl)azetidine-3-carboxylic acid] | 0.9
14 | Cc1c(COc2cc(OCc3cncc(C#N)c3)c(CN3CC[C@H](C(=O)O)C3)cc2Cl)cccc1-c1cccc(-c2ccc3c(c2)C(=O)N(C)CC(=O)N3CCN2CC[C@H](C(=O)O)C2)c1C [Example 30, (S)-1-(4-((3′-(1-(2-((S)-3-Carboxypyrrolidin-1-yl)ethyl)-4-methyl-2,5-dioxo-2,3,4,5-tetrahydro-1H-benzo[e][1,4]diazepin-7-yl)-2,2′-dimethyl-[1,1′-biphenyl]-3-yl)methoxy)-5-chloro-2-((5-cyanopyridin-3-yl)methoxy)benzyl)pyrrolidine-3-carboxylic acid] | 0.3
15 | COc1nc(-c2cccc(-c3cccc(-c4ccn5c(=O)c(CNC[C@@H]6CCC(=O)N6)cnc5c4)c3C)c2C)ccc1CNC[C@@H]1CCC(=O)N1 [Example 31, 8-(3′-(6-Methoxy-5-(((((S)-5-oxopyrrolidin-2-yl)methyl)amino)methyl)pyridin-2-yl)-2,2′-dimethyl-[1,1′-biphenyl]-3-yl)-3-(((((S)-5-oxopyrrolidin-2-yl)methyl)amino)methyl)-4H-pyrido[1,2-a]pyrimidin-4-one] | 2.3
16 | COc1nc(-c2cccc(-c3cccc(-c4ccn5c(=O)c(CNC[C@@H]6CCC(=O)N6)cnc5c4)c3C)c2Cl)ccc1CNC[C@@H]1CCC(=O)N1 [Example 32, 8-(2′-Chloro-3′-(6-methoxy-5-(((((S)-5-oxopyrrolidin-2-yl)methyl)amino)methyl)pyridin-2-yl)-2-methyl-[1,1′-biphenyl]-3-yl)-3-(((((S)-5-oxopyrrolidin-2-yl)methyl)amino)methyl)-4H-pyrido[1,2-a]pyrimidin-4-one] | 2.3
17 | COc1nc(-c2cccc(-c3cccc(-c4ccn5c(=O)c(CNC[C@@H]6CCC(=O)N6)cnc5c4)c3Cl)c2Cl)ccc1CNC[C@@H]1CCC(=O)N1 [Example 33, 8-(2,2′-Dichloro-3′-(6-methoxy-5-(((((S)-5-oxopyrrolidin-2-yl)methyl)amino)methyl)pyridin-2-yl)-[1,1′-biphenyl]-3-yl)-3-(((((S)-5-oxopyrrolidin-2-yl)methyl)amino)methyl)-4H-pyrido[1,2-a]pyrimidin-4-one] | 2.7
18 | CNCCCOc1cc(C)c2nc(-c3cccc(-c4cccc(-c5cc(=O)n6cc(OCCCNC)cc(C)c6n5)c4Cl)c3Cl)cc(=O)n2c1 [Example 35, 2,2′-(2,2′-Dichloro-[1,1′-biphenyl]-3,3′-diyl)bis(9-methyl-7-(3-(methylamino)propoxy)-4H-pyrido[1,2-a]pyrimidin-4-one)] | 350
19 | COc1nc(-c2cccc(-c3cccc(-c4ccn5c(=O)c(CNC[C@@H]6CCC(=O)N6)cnc5c4)c3C)c2Cl)cnc1CNC[C@@H]1CCC(=O)N1 [Example 36, 8-(2′-Chloro-3′-(6-methoxy-5-(((((S)-5-oxopyrrolidin-2-yl)methyl)amino)methyl)pyrazin-2-yl)-2-methyl-[1,1′-biphenyl]-3-yl)-3-(((((S)-5-oxopyrrolidin-2-yl)methyl)amino)methyl)-4H-pyrido[1,2-a]pyrimidin-4-one] | 1.5
20 | Cc1c(-c2ccn3c(=O)c(CNC[C@@H]4CCC(=O)N4)cnc3c2)cccc1-c1cccc(-c2ccn3c(=O)c(CNC[C@@H]4CCC(=O)N4)cnc3c2)c1C [Example 37, 8,8′-(2,2′-Dimethyl-[1,1′-biphenyl]-3,3′-diyl)bis(3-(((((S)-5-oxopyrrolidin-2-yl)methyl)amino)methyl)-4H-pyrido[1,2-a]pyrimidin-4-one)] | 140
